Assays:
[1] = molecular target: ligand binding domain of human FXR (Homo sapiens (Human), UniProt Q96RI1); experiment: FXR ligand binding assay (LanthaScreen TR-FRET, SRC2-2 peptide recruitment); details: for pEC50: -log EC50, concentration required to produce 50% activation; for Emax: extent of activation relative to GW4064, read-out: % Efficacy
[2] = molecular target: human Farnesoid X receptor ligand-binding domain/Gal4 DNA binding domain chimera (Homo sapiens (Human), UniProt Q96RI1); experiment: Cell-based assay of FXR activation (FXR-UAS-bla HEK 293T beta-lactamase reporter); details: cellular FXR beta-lactamase reporter assay; for Emax: HEK-293T, extent of activation relative to GW4064, read-out: % Efficacy; for EC50: FXR-UAS-bla HEK 293T cells, 16 h, pEC50 = -log EC50
How it was run: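 HEK 293T cells stably expressing a Gal4-fused human FXR LBD and a UAS-driven beta-lactamase reporter were incubated with serially diluted compounds for 16 h at 37 °C in phenol red-free DMEM with 2% charcoal-stripped FBS. CCF4 FRET read-out: excitation 409 nm, emission 447 nm. pEC50 comes from a 3-parameter logistic fit, and efficacy is given as % of GW4064.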

Chain of human Farnesoid X receptor ligand-binding domain/Gal4 DNA binding domain chimera (Q96RI1 262-486, change not shown): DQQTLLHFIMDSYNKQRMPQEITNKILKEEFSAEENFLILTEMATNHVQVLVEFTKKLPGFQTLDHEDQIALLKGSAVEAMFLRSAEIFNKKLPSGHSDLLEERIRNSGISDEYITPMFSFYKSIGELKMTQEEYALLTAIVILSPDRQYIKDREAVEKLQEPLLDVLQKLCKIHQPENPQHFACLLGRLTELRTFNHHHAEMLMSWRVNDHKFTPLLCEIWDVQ
Chain of human Farnesoid X receptor ligand-binding domain/Gal4 DNA binding domain chimera (P04386 1-147 partner): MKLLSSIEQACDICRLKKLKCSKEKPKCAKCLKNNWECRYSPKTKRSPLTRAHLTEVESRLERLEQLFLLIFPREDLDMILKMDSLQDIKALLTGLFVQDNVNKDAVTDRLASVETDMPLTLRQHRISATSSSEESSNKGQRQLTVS
Chain of ligand binding domain of human FXR (Q96RI1 262-486): as the sequence (Q96RI1 262-486, change not shown) above

O=C(NS(=O)(=O)CCCO)c1ccc(N2C[C@@H]3C[C@H]2C[C@H]3OCc2c(-c3c(Cl)cccc3Cl)noc2C2CC2)cc1 [Compound I-215, 4-[(1S,4S,5R)-5-{[5-cyclopropyl-3-(2,6-dichlorophenyl)-1,2-oxazol-4-yl]methoxy}-2-azabicyclo[2.2.1]heptan-2-yl]-N-(3-hydroxypropanesulfonyl)benzamide]
pEC50 [1]: 8.6
Emax [1]: 142%
Emax [2]: 107%
EC50 [2]: 1.58 nM

O=C(O)c1ccc(N2C[C@@H]3C[C@H]2C[C@H]3OC(=O)c2c(-c3c(Cl)cccc3Cl)noc2C2CC2)c(F)c1 [Compound I-43, 4-[(1S,4S,5R)-5-[5-cyclopropyl-3-(2,6-dichlorophenyl)-1,2-oxazole-4-carbonyloxy]-2-azabicyclo[2.2.1]heptan-2-yl]-3-fluorobenzoic Acid]
pEC50 [1]: 7.8
Emax [1]: 176%
Emax [2]: 124%
EC50 [2]: 6.31 nM

O=C(O)c1cc([C@H]2CCOC2)c2nc(N3C[C@@H]4C[C@H]3C[C@H]4OCc3c(-c4c(F)cccc4Cl)noc3C3CC3)sc2c1 [Compound I-265]
pEC50 [1]: 8.4
Emax [1]: 146%
Emax [2]: 110%
EC50 [2]: 0.501 nM

COc1ccc(-c2noc(C3CC3)c2CO[C@@H]2C[C@@H]3C[C@H]2CN3c2nc3c(F)cc(C(=O)O)cc3s2)cc1 [Compound I-290, 2-((1S,4S,5R)-5-((5-cyclopropyl-3-(4-methoxyphenyl)isoxazol-4-yl)methoxy)-2-azabicyclo[2.2.1]heptan-2-yl)-4-fluorobenzo[d]thiazole-6-carboxylic acid]
pEC50 [1]: >4.5
EC50 [2]: < 31.6 nM

N#Cc1cc(N2C[C@@H]3C[C@H]2C[C@H]3OCc2c(-c3c(Cl)cccc3Cl)noc2C2CC2)ccc1C(=O)O [Compound I-101, 2-Cyano-4-[(1S,4S,5R)-5-{[5-cyclopropyl-3-(2,6-dichlorophenyl)-1,2-oxazol-4-yl]methoxy}-2-azabicyclo[2.2.1]heptan-2-yl]benzoic Acid]
pEC50 [1]: 9.8
Emax [1]: 137%
Emax [2]: 113%
EC50 [2]: 1 nM

Cc1cccc(Cl)c1-c1noc(C2CC2)c1CO[C@@H]1C[C@@H]2C[C@H]1CN2c1ccc(CCC(=O)NS(=O)(=O)C2CCOCC2)cc1F [Compound I-243, 3-(4-((1S,4S,5R)-5-((3-(2-chloro-6-methylphenyl)-5-cyclopropylisoxazol-4-1)methoxy)-2-azabicyclo[2.2.1]heptan-2-yl)-3-fluorophenyl)-N-((tetrahydro-2H-pyran-4-yl)sulfonyl)propanamide]
pEC50 [1]: 8.4
Emax [1]: 182%
Emax [2]: 98%
EC50 [2]: 6.31 nM

CCCS(=O)(=O)NC(=O)c1cc(F)c2nc(N3C[C@@H]4C[C@H]3C[C@H]4OC(=O)c3c(-c4c(Cl)cccc4Cl)noc3C3CC3)sc2c1 [Compound I-32, (1S,4S,5R)-2-{4-fluoro-6-[(propane-1-sulfonyl)carbamoyl]-1,3-benzothiazol-2-yl}-2-azabicyclo[2.2.1]heptan-5-yl 5-cyclopropyl-3-(2,6-dichlorophenyl)-1,2-oxazole-4-carboxylate]
pEC50 [1]: 7.6
Emax [1]: 148%
Emax [2]: 110%
EC50 [2]: 126 nM

COCC(=O)NCCCCCCCCCCS(=O)(=O)NC(=O)c1ccc(N2C[C@@H]3C[C@H]2C[C@H]3OCc2c(-c3c(Cl)cccc3Cl)noc2C2CC2)c(F)c1 [Compound I-225, N-{10-[({4-[(1S,4S,5R)-5-{[5-cyclopropyl-3-(2,6-dichlorophenyl)-1,2-oxazol-4-yl]methoxy}-2-azabicyclo[2.2.1]heptan-2-yl]-3-fluorophenyl}formamido)sulfonyl]decyl}-2-methoxyacetamide]
pEC50 [1]: 9.5
Emax [1]: 166%
Emax [2]: 103%
EC50 [2]: 2 nM

O=C(O)c1cc(C2CCOCC2)c2nc(N3C(=O)[C@@H]4C[C@H]3C[C@H]4OCc3c(-c4c(Cl)cccc4Cl)noc3C3CC3)sc2c1 [Compound I-298, 2-((1S,4R,5R)-5-((5-cyclopropyl-3-(2,6-dichlorophenyl)isoxazol-4-yl)methoxy)-3-oxo-2-azabicyclo[2.2.1]heptan-2-yl)-4-(tetrahydro-2H-pyran-4-yl)benzo[d]thiazole-6-carboxylic acid]
Emax [1]: 133%
Emax [2]: 112%
EC50 [2]: 7.94 nM

O=C(NCCS(=O)(=O)O)c1ccc(N2C(=O)[C@@H]3C[C@H]2C[C@H]3OCc2c(-c3c(Cl)cccc3Cl)noc2C2CC2)cc1 [Compound I-359, 2-({4-[(1S,4R,5R)-5-{[5-cyclopropyl-3-(2,6-dichlorophenyl)-1,2-oxazol-4-yl]methoxy}-3-oxo-2-azabicyclo[2.2.1]heptan-2-yl]phenyl}formamido)ethane-1-sulfonic Acid]
pEC50 [1]: 8.4
Emax [1]: 148%
Emax [2]: 126%
EC50 [2]: 398 nM

O=C(O)c1cc(C2CC3(CCOCC3)C2)c2nc(N3C[C@@H]4C[C@H]3C[C@H]4OCc3c(-c4c(Cl)cccc4Cl)noc3C3CC3)sc2c1 [Compound I-257, 2-[(1S,4S,5R)-5-{[5-cyclopropyl-3-(2,6-dichlorophenyl)-1,2-oxazol-4-yl]methoxy}-2-azabicyclo[2.2.1]heptan-2-yl]-4-{7-oxaspiro[3.5]nonan-2-yl}-1,3-benzothiazole-6-carboxylic Acid]
pEC50 [1]: 8.6
Emax [1]: 148%
Emax [2]: 108%
EC50 [2]: 0.1 nM

O=C(O)c1cc(F)c2nc(N3C[C@H]4C[C@@H]3C[C@@H]4OC(=O)c3c(-c4c(Cl)cccc4Cl)noc3C3CC3)sc2c1 [Compound I-38, 2-[(1R,4R,5S)-5-[5-cyclopropyl-3-(2,6-dichlorophenyl)-1,2-oxazole-4-carbonyloxy]-2-azabicyclo[2.2.1]heptan-2-yl]-4-fluoro-1,3-benzothiazole-6-carboxylic Acid]
pEC50 [1]: 6.3
Emax [1]: 56%
Emax [2]: 96%
EC50 [2]: 200 nM

O=C(NS(=O)(=O)C1CC1)c1ccc(N2C[C@@H]3C[C@H]2C[C@H]3OCc2c(-c3c(Cl)cccc3Cl)noc2C2CC2)c(F)c1 [Compound I-62, N-(cyclopropanesulfonyl)-4-[(1S,4S,5R)-5-{[5-cyclopropyl-3-(2,6-dichlorophenyl)-1,2-oxazol-4-yl]methoxy}-2-azabicyclo[2.2.1]heptan-2-yl]-3-fluorobenzamide]
pEC50 [1]: 7.9
Emax [1]: 188%
Emax [2]: 112%
EC50 [2]: 0.158 nM

O=C(O)c1cc(O[C@H]2CCOC2)c2nc(N3C(=O)[C@@H]4C[C@H]3C[C@H]4OCc3c(-c4c(Cl)cccc4Cl)noc3C3CC3)sc2c1 [Compound I-302, 2-((1S,4R,5R)-5-((5-cyclopropyl-3-(2,6-dichlorophenyl)isoxazol-4-yl)methoxy)-3-oxo-2-azabicyclo[2.2.1]heptan-2-yl)-4-(((S)-tetrahydrofuran-3-yl)oxy)benzo[d]thiazole-6-carboxylic acid]
pEC50 [1]: 8.4
Emax [1]: 106%
Emax [2]: 114%
EC50 [2]: 39.8 nM

O=C(NS(=O)(=O)c1cn[nH]c1)c1ccc(N2C[C@@H]3C[C@H]2C[C@H]3OCc2c(-c3c(Cl)cccc3Cl)noc2C2CC2)cc1 [Compound I-188, N-((1H-pyrazol-4-yl)sulfonyl)-4-((1S,4S,5R)-5-((5-cyclopropyl-3-(2,6-dichlorophenyl)isoxazol-4-yl)methoxy)-2-azabicyclo[2.2.1]heptan-2-yl)benzamide]
Emax [1]: 150%
Emax [2]: 100%
EC50 [2]: 6.31 nM
